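Following 48 hours of exposure in 96-well plates, responses at five concentrations were used to interpolate endpoints linearly. GI50 is the concentration that inhibits growth by half.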 Activity calls are given as the source filed them. Rule as the data show it: active = GI50 up to about 1.1 µM and inactive = higher.
Experiments:
Assay in all cases: inhibition of tumour cell growth, NCI panel, 48 h
[1] = system: 786-0
[2] = system: A498
[3] = system: A549
[4] = system: ACHN
[5] = system: BT-549
[6] = system: CAKI-1
[7] = system: CCRF-CEM
[8] = system: COLO 205
[9] = system: DU-145
[10] = system: EKVX
[11] = system: HCC 2998
[12] = system: HCT-116
[13] = system: HCT-15
[14] = system: HL-60
[15] = system: HOP-62
[16] = system: HOP-92
[17] = system: HT-29
[18] = system: Hs-578T
[19] = system: IGROV-1
[20] = system: K562
[21] = system: KM12
[22] = system: LOX IMVI
[23] = system: MCF7
[24] = system: MDA-MB-435
[25] = system: MDA-N
[26] = system: MOLT-4
[27] = system: NCI-H226
[28] = system: NCI-H460
[29] = system: NCI-H522
[30] = system: NCI/ADR-RES
[31] = system: OVCAR-3
[32] = system: OVCAR-4
[33] = system: OVCAR-5
[34] = system: OVCAR-8
[35] = system: PC-3
[36] = system: RPMI-8226
[37] = system: RXF 393
[38] = system: SF-295
[39] = system: SF-539
[40] = system: SK-MEL-28
[41] = system: SK-MEL-2
[42] = system: SK-MEL-5
[43] = system: SK-OV-3
[44] = system: SN12C
[45] = system: SNB-19
[46] = system: SNB-75
[47] = system: SR
[48] = system: SW-620
[49] = system: T47D
[50] = system: TK-10
[51] = system: U-251
[52] = system: UACC-257
[53] = system: UACC-62
[54] = system: UO-31
[55] = system: MDA-MB-231
[56] = system: Malme-3M
[57] = system: NCI-H23
[58] = system: SF-268

Compound: CC(C)(CNC(=O)/C(Cl)=C(/Cl)C(=O)O)CNC(=O)/C(Cl)=C(/Cl)C(=O)O
- GI50 [1]: > 100 µM (inactive)
- GI50 [2]: > 100 µM (inactive)
- GI50 [3]: > 100 µM (inactive)
- GI50 [4]: 28.4 µM (inactive)
- GI50 [5]: > 100 µM (inactive)
- GI50 [6]: > 100 µM (inactive)
- GI50 [7]: 39.3 µM (inactive)
- GI50 [8]: 18.2 µM (inactive)
- GI50 [9]: > 100 µM (inactive)
- GI50 [10]: > 100 µM (inactive)
- GI50 [11]: > 100 µM (inactive)
- GI50 [12]: 36.2 µM (inactive)
- GI50 [13]: > 10 µM
- GI50 [14]: 34 µM (inactive)
- GI50 [15]: > 100 µM (inactive)
- GI50 [16]: 78.3 µM (inactive)
- GI50 [17]: 48.5 µM (inactive)
- GI50 [18]: > 100 µM (inactive)
- GI50 [19]: > 100 µM (inactive)
- GI50 [20]: 40.1 µM (inactive)
- GI50 [21]: > 100 µM (inactive)
- GI50 [22]: 28.8 µM (inactive)
- GI50 [23]: 59.6 µM (inactive)
- GI50 [24]: > 100 µM (inactive)
- GI50 [25]: > 100 µM (inactive)
- GI50 [26]: 30.9 µM (inactive)
- GI50 [27]: > 100 µM (inactive)
- GI50 [28]: > 100 µM (inactive)
- GI50 [29]: 29.1 µM (inactive)
- GI50 [30]: > 100 µM (inactive)
- GI50 [31]: > 100 µM (inactive)
- GI50 [32]: > 100 µM (inactive)
- GI50 [33]: > 100 µM (inactive)
- GI50 [34]: > 100 µM (inactive)
- GI50 [35]: > 100 µM (inactive)
- GI50 [36]: 22.6 µM (inactive)
- GI50 [37]: > 100 µM (inactive)
- GI50 [38]: > 100 µM (inactive)
- GI50 [39]: 67.6 µM (inactive)
- GI50 [40]: > 100 µM (inactive)
- GI50 [41]: > 100 µM (inactive)
- GI50 [42]: > 100 µM (inactive)
- GI50 [43]: > 100 µM (inactive)
- GI50 [44]: > 10 µM (inactive)
- GI50 [45]: > 100 µM (inactive)
- GI50 [46]: > 100 µM (inactive)
- GI50 [47]: 44.6 µM (inactive)
- GI50 [48]: 40.6 µM (inactive)
- GI50 [49]: 92.7 µM (inactive)
- GI50 [50]: 64.3 µM (inactive)
- GI50 [51]: > 100 µM (inactive)
- GI50 [52]: > 100 µM (inactive)
- GI50 [53]: > 100 µM (inactive)
- GI50 [54]: > 100 µM (inactive)

Compound: Cn1ccc(C(=O)NCCOCCNC(=O)c2ccn(C)c(=O)c2O)c(O)c1=O
- GI50 [1]: > 100 µM (inactive)
- GI50 [2]: > 100 µM (inactive)
- GI50 [3]: > 100 µM (inactive)
- GI50 [4]: > 100 µM (inactive)
- GI50 [5]: > 100 µM (inactive)
- GI50 [6]: > 100 µM (inactive)
- GI50 [8]: > 100 µM (inactive)
- GI50 [9]: > 100 µM (inactive)
- GI50 [11]: > 100 µM (inactive)
- GI50 [12]: > 100 µM (inactive)
- GI50 [13]: > 100 µM
- GI50 [16]: > 100 µM (inactive)
- GI50 [17]: > 100 µM (inactive)
- GI50 [18]: > 100 µM (inactive)
- GI50 [21]: 18.2 µM (inactive)
- GI50 [22]: > 100 µM (inactive)
- GI50 [55]: > 100 µM (inactive)
- GI50 [24]: > 100 µM (inactive)
- GI50 [25]: > 100 µM (inactive)
- GI50 [56]: > 100 µM (inactive)
- GI50 [27]: > 100 µM (inactive)
- GI50 [57]: > 100 µM (inactive)
- GI50 [28]: > 100 µM (inactive)
- GI50 [29]: > 100 µM (inactive)
- GI50 [30]: > 100 µM (inactive)
- GI50 [32]: > 100 µM (inactive)
- GI50 [34]: > 100 µM (inactive)
- GI50 [35]: > 100 µM (inactive)
- GI50 [36]: > 100 µM (inactive)
- GI50 [58]: > 100 µM (inactive)
- GI50 [40]: > 100 µM (inactive)
- GI50 [41]: > 100 µM (inactive)
- GI50 [42]: > 100 µM (inactive)
- GI50 [44]: > 100 µM (inactive)
- GI50 [45]: > 100 µM (inactive)
- GI50 [48]: > 100 µM (inactive)
- GI50 [49]: > 100 µM (inactive)
- GI50 [50]: > 100 µM (inactive)
- GI50 [51]: > 100 µM (inactive)
- GI50 [52]: > 100 µM (inactive)
- GI50 [53]: > 100 µM (inactive)
- GI50 [54]: > 100 µM (inactive)

From ChEMBL document CHEMBL1201862, “PubChem BioAssay data set” (2004)
